The values that follow come from PMC5967867, “An NMDAR positive and negative allosteric modulator series share a binding site and are interconverted by methyl groups” (eLife, 2018).

pKd: −log10 of the molar value. Where “and” joins values, the source holds several entries; their conditions need not be identical. Equal values may be shown once. Read-outs that look alike come from different tables or passages of the source. Marks after values point to notes of the source that are not given here.

One test has as its target GluN1/GluN2C NMDARs (Rattus norvegicus, UniProt P35439+Q00961). The experiment in a line: Two-electrode voltage-clamp recordings, Xenopus laevis oocytes expressing GluN1/GluN2C. Type of test: cell-based. Conditions: for Modulation by 10 µM (% of control): 10 µM modulator; for Emax: read-out: Maximal Degree of Modulation (% of control). As for the experimental part:
(§1) cDNAs for rat wild type NMDAR subunits GluN1-1a (GenBank U11418, U08261; hereafter GluN1 or GluN1a), GluN1-1b (U08263, hereafter GluN1b), GluN2A (D13211), GluN2B (U11419), GluN2C (M91563), and GluN2D (L31611, modified as described in [Monyer et al., 1994]) were provided by Drs. S. Heinemann (Salk Institute), S. Nakanishi (Kyoto University), and P. Seeburg (University of Heidelberg). Site-directed mutagenesis was conducted using the QuikChange kit (Agilent Technologies, Santa Clara, CA) following the recommended protocol. DNA sequencing was used to verify all mutations. The amino acid numbering system started with the initiating methionine as residue number one. For expression in Xenopus laevis oocytes, cDNA constructs were linearized by restriction enzymes, and subsequently used to synthesize in vitro cRNAs following the manufacturer’s protocol (mMessage mMachine, Ambion, ThermoFisher Scientific, Waltham, MA).
Xenopus laevis stage VI oocytes (Ecocyte Biosciences, Austin, TX) were injected as previously described ([Hansen et al., 2013]) 2–7 days prior to recording with cRNA encoding the NMDAR subunits and stored at 15°C in media containing (in mM) 88 NaCl, 2.4 NaHCO3, 1 KCl, 0.33 Ca(NO3)2, 0.41 CaCl2, 0.82 MgSO4, 5 Tris-HCl; pH was adjusted to 7.4 with NaOH and the solution supplemented with 1 U/mL penicillin, 0.1 mg/mL gentamicin sulfate, and 1 μg/mL streptomycin. Two-electrode voltage-clamp recordings were performed at room temperature (21–23°C) using different internal solutions for voltage and current electrodes (0.3 M and 3.0 M KCl, respectively). All extracellular solutions were made from a solution containing (in mM) 90 NaCl, 1 KCl, 10 HEPES, 0.5 BaCl2, 0.01 EDTA (pH 7.4 with NaOH). Experiments were performed using an eight port Modular Valve Positioner (Hamilton Company, Reno, NV) and controlled by custom software (Easy Oocyte, Emory University, Atlanta, GA)to exchange solutions. Oocyte currents were recorded at a holding potential of −40 mV using a two-electrode voltage-clamp amplifier (OC-725B or OC-725C, Warner Instruments, Hamden, CT). […] In MTSEA experiments, fresh MTSEA solutions (0.2 mM) were prepared and utilized in less than 30 min to limit compound degradation.
Measurements are given as mean ± SEM unless otherwise indicated. The number of replicate experiments used was chosen to ensure a power level of at least 0.80 when α = 0.05 and when detecting appropriate effect sizes. EC50 and IC50 values and confidence intervals reported were calculated by averaging the log(EC50) or log(IC50) value, determining confidence intervals for mean log(EC50) or log(IC50), and converting back to units of molarity. Statistical significance evaluations (α set to 0.05) were performed using a one-way ANOVA with Dunnett’s multiple comparison test, a paired t–test, or other appropriate tests as described.
In general terms: Two-electrode voltage clamp holds a large cell at a set potential and records current.

The target in a further test is GluN1/GluN2A NMDARs (Rattus norvegicus, UniProt P35439+Q00959). The experiment in a line: Whole cell patch-clamp recordings, HEK293 cells expressing GluN1/GluN2A. Type of test: cell-based. Conditions: for modulation of high desensitized steady state responses / modulation of low desensitized steady state responses (drug/control): 10 µM, 100/30 µM glutamate/glycine; for modulation of high desensitized steady state responses / modulation of low desensitized steady state responses (drug/control) / pKd: HEK cells; for kon / koff: HEK293; for kon: read-out: association rate kon; for koff: read-out: dissociation rate koff; for pKd: calculated from association and dissociation rates, read-out: kinetically-determined affinity constant Kd. As for the experimental part: We studied NMDARs expressed in HEK293 cells to investigate the time course of modulator action. […] These modulators were tested on GluN1/GluN2A and GluN1/GluN2D to see whether there were differences in modulation given the distinct properties of these NMDAR subtypes. […] From these we calculated the kinetically-determined affinity constant (Kd), which we found to be similar to the EC50 values determined from concentration-response experiments. […] Complex actions of EU1794-4 and EU1794-27 were observed, with two temporally-distinct phases of modulation evident for the association of these modulators (Figure 4A). Both compounds produced a rapid inhibition followed by a slowly developing potentiating phase for EU1794-27. The rapid association rate determined during the rapid inhibition produced by EU1794-4 was approximately three times faster than EU1794-2; similarly, the dissociation rate was also faster for EU1794-4 than EU1794-2. Quantitative analysis of the slower phases was challenging due to its lower signal-to-noise ratio. Likewise, the rapid inhibitory phase was also difficult to measure for EU1794-27 because its rapid time course was convolved with the potentiation time course. Additionally, the depotentiation time course is preceded by a transient enhancement of the current response, followed by a relaxation to the pre-modulation level. The time course for potentiation and depotentiation were best fit with an exponential function summed with an additional linear component after the rapid phase subsided. […] All modulatory effects were independent of voltage (Figure 4—figure supplement 1A). The steady state modulator responses from HEK293 cells approximately match the concentration-response relationship determined from TEVC recordings from X. laevis oocytes (Figure 4A, inset graphs). The time-course of modulator binding of EU1794-2, EU1794-4 and EU1794-27 was also determined for GluN1/GluN2A (Figure 4C,D). Higher Kd values (lower potency) were determined for each molecule at GluN1/GluN2A as compared to GluN1/GluN2D that parallel EC50 values determined using X. laevis oocytes. Similar to oocyte data, robust inhibition was produced by EU1794-2, modest inhibition was produced by EU1794-4, and transient inhibition and recovery was observed by the application of EU1794-27. […] The low desensitized group (40% average desensitization) was modulated by 107%, whereas the high desensitized group (10% average desensitization) was modulated to 247% of control by 10 µM EU1794-27 (Figure 4C and Figure 4—figure supplement 1F).
as §1
HEK293 cells (CRL-1573, ATCC, Manassas, VA) were maintained in a tissue culture room solely reserved for their culturing and transfected using a CaPO4 protocol to express the diheteromeric NMDARs as previously described ([Hansen et al., 2013]). Cell lines were obtained directly from the supplier, were expanded, frozen and kept in liquid nitrogen in a dewar. Mycoplasma testing was not performed. cDNA ratios for transfection were 1:1:1 (GluN2D) or 1:1:5 (GluN2A) for GluN1:GluN2:GFP. […]

The mark [1] stands for this setting: glutamate/glycine 100/30 µM, no second modulator (+EU1794-27 0 µM), read-out: IC50 (µM) [conf. int.].
Where [2] appears, read: saturating glutamate/glycine 100/30 µM, mean [95% CI], read-out: EC50 (µM) [conf. int.].
The mark [3] stands for this setting: saturating glutamate/glycine 100/30 µM, mean ± SEM.
[4] abbreviates: Glu/Gly 1/0.3 µM (sub-saturating).
Where [5] appears, read: sub-saturating glutamate/glycine 1/0.3 µM, read-out: EC50 (µM) [conf. int.].
[6] abbreviates: sub-saturating glutamate/glycine 1/0.3 µM.
The mark [7] stands for this setting: concentration dependence of linear component of time course.

GluN1/GluN2A NMDARs, sequence (Q00959 23-1464, other chains not shown): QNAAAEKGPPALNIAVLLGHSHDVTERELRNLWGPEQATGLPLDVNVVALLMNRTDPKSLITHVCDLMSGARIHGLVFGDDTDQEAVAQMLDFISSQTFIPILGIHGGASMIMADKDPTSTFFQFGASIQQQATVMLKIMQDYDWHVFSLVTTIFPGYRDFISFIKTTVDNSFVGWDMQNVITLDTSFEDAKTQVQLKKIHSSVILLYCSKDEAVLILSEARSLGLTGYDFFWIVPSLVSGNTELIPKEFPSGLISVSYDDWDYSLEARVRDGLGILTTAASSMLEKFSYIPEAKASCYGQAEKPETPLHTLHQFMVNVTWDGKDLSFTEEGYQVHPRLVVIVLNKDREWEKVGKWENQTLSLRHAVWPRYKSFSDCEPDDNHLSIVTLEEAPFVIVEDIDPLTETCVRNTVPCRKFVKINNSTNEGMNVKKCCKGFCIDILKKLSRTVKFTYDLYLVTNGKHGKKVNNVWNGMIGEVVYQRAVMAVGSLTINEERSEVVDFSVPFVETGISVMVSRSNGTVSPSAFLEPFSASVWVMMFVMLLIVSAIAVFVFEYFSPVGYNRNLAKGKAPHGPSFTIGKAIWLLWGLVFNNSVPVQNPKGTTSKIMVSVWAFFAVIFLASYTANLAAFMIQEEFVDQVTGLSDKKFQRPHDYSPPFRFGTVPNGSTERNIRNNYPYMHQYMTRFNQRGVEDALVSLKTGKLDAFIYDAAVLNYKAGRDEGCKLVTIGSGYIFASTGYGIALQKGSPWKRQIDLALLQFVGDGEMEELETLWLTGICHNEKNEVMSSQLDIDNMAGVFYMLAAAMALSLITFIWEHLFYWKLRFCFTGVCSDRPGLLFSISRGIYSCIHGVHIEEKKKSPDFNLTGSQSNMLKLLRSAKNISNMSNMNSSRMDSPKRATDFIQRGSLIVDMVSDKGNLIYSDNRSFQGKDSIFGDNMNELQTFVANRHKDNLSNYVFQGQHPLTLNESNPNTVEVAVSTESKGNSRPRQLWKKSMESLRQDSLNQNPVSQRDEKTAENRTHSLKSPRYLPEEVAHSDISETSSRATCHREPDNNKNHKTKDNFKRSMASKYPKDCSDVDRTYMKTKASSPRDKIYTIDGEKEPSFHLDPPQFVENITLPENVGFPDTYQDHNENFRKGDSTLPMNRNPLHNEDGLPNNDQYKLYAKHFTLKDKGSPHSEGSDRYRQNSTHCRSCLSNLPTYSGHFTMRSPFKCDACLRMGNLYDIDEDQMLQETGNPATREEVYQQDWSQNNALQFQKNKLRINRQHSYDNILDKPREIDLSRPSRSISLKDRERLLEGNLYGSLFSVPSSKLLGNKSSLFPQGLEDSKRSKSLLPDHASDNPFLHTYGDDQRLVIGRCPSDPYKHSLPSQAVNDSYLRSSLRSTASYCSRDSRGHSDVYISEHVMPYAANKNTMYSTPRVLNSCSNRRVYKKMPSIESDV
GluN1/GluN2C NMDARs, sequence (Q00961 20-1237, other chains not shown): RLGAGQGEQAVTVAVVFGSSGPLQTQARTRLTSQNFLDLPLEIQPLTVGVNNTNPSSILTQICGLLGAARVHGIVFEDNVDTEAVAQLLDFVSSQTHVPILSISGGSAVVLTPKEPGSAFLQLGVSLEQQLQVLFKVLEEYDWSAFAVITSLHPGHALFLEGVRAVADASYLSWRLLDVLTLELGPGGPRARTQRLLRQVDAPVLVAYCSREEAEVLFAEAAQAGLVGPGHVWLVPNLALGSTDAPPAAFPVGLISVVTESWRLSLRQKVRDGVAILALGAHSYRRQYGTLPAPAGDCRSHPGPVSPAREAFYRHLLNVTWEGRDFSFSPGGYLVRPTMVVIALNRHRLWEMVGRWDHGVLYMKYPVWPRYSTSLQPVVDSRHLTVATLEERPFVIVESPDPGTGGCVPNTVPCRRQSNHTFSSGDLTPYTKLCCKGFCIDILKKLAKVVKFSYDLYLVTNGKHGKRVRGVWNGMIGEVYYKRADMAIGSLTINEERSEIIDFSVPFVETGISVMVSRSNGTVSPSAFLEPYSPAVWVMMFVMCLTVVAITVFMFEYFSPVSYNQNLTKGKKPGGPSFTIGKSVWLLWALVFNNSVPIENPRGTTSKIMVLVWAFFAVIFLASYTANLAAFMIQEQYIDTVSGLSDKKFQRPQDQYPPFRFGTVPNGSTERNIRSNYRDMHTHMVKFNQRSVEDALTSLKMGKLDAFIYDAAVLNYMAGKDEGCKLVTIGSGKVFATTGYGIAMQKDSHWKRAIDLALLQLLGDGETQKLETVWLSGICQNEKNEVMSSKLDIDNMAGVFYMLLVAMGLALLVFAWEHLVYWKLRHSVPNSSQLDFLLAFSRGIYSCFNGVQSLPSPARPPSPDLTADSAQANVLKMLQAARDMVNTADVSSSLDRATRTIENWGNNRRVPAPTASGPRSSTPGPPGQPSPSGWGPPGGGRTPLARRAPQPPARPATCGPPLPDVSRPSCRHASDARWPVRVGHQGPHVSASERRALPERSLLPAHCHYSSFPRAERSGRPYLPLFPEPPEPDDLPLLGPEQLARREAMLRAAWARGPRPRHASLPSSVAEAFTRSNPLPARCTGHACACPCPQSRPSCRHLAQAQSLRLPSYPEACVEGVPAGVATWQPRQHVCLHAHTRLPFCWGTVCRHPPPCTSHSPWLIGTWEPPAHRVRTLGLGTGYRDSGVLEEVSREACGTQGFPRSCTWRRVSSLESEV

As usually defined, the IC50 is the concentration that gives 50% inhibition. For orientation: EC50 means the concentration at which the effect is half-maximal. What is called kon is a measure of how fast the partners come together. What is called koff is the first-order rate constant of dissociation. In general, pKd refers to the Kd on a negative log10 scale, so that one unit is a factor of ten. Regarding `CCOC(=O)c1c(NC(=O)CC2SC(=N)NC2=O)sc2c1CCC(C)C2` (stereo not shown) [EU1794-2, ethyl 2-(2-(2-imino-4-oxothiazolidin-5-yl)acetamido)-6-methyl-4,5,6,7-tetrahydrobenzo[b]thiophene-3-carboxylate], the “Modulation by 10 µM (% of control)” value is 43 ± 2.1 % of control on GluN1/GluN2C NMDARs (Glu/Gly 0.6/0.2 µM (sub-saturating)) and 16 ± 1.0 % of control at GluN1/GluN2C NMDARs (Glu/Gly 100/30 µM). In addition, the IC50 on GluN1/GluN2C NMDARs (+EU1794-27 3 µM, glutamate/glycine 100/30 µM, read-out: EU1794-2 IC50 (µM) [conf. int.]) worked out at 1.2 µM; on GluN1/GluN2C NMDARs (+EU1794-27 10 µM, glutamate/glycine 100/30 µM, read-out: EU1794-2 IC50 (µM) [conf. int.]), 2.4 µM; on GluN1/GluN2C NMDARs (+EU1794-27 20 µM, glutamate/glycine 100/30 µM, read-out: EU1794-2 IC50 (µM) [conf. int.]) it was 6 µM; on GluN1/GluN2C NMDARs (setting [1]), 0.21 µM. Also, the EC50 on GluN1/GluN2C NMDARs (setting [2]) came to 0.26 µM; at GluN1/GluN2C NMDARs (sub-saturating glutamate/glycine 0.6/0.2 µM, read-out: EC50 (µM) [conf. int.]), 0.72 µM. Moreover, the figures for the Emax at GluN1/GluN2C NMDARs (setting [3]) and at GluN1/GluN2C NMDARs (sub-saturating glutamate/glycine 0.6/0.2 µM) were 14% and 41%, respectively. Further, the “modulation of high desensitized steady state responses” value at GluN1/GluN2A NMDARs was 32 % of control. Moreover, the “modulation of low desensitized steady state responses (drug/control)” value (“modulation … (drug/control)” below) at GluN1/GluN2A NMDARs was 13 % of control. Further, the association rate constant (kon) at GluN1/GluN2A NMDARs was found to be 390000 M⁻¹ s⁻¹. Also, on GluN1/GluN2A NMDARs, the off-rate constant (koff) was 0.938 s⁻¹. Further, on GluN1/GluN2A NMDARs, the negative-log Kd (pKd) was 5.62.
On to `CCOC(=O)c1c(NC(=O)CC2SC(=N)NC2=O)sc2c1CCCC2` (stereo not shown) [EU1794-4, ethyl 2-(2-(2-imino-4-oxothiazolidin-5-yl)acetamido)-4,5,6,7-tetrahydrobenzo[b]thiophene-3-carboxylate], for which the “Modulation by 10 µM (% of control)” value at GluN1/GluN2C NMDARs (Glu/Gly 0.3/0.09 µM (sub-saturating)) is listed as 660 ± 110 % of control; on GluN1/GluN2C NMDARs (setting [4]) it was 140 ± 12 % of control; at GluN1/GluN2C NMDARs (Glu/Gly 100/30 µM), 54 ± 1.6 % of control. Further, on GluN1/GluN2C NMDARs (control vs 10 µM EU1794-4), the “Fold Difference (glutamate EC50)” value is reported as 3.2^†. Also, the “Fold Difference (glycine EC50)” value on GluN1/GluN2C NMDARs (control vs 10 µM EU1794-4) is given as 4.6^†. For the same compound, the IC50 at GluN1/GluN2C NMDARs (setting [1]) is 0.42 µM. In addition, the EC50 at GluN1/GluN2C NMDARs (setting [2]) is 0.42 µM; at GluN1/GluN2C NMDARs (setting [5]) it was 15 µM. Besides, the Emax at GluN1/GluN2C NMDARs (setting [3]) amounted to 52%; at GluN1/GluN2C NMDARs (setting [6]) it was 220%. In addition, the “modulation … (drug/control)” value on GluN1/GluN2A NMDARs is recorded as 47 % of control. Besides, the on-rate constant (kon) on GluN1/GluN2A NMDARs stood at 502000 M⁻¹ s⁻¹. In addition, the dissociation rate constant (koff) on GluN1/GluN2A NMDARs was determined as 3.94 s⁻¹. Also, at GluN1/GluN2A NMDARs, the negative logarithm of the Kd (pKd) was 5.11.
As for `CC(C)(C)OC(=O)c1c(NC(=O)CC2SC(=N)NC2=O)sc2c1CCCC2` (stereo not shown) [EU1794-27, tert-butyl 2-(2-(2-imino-4-oxothiazolidin-5-yl)acetamido)-4,5,6,7-tetrahydrobenzo[b]thiophene-3-carboxylate], the “Modulation by 10 µM (% of control)” value at GluN1/GluN2C NMDARs (setting [4]) is 480 ± 31 % of control. On GluN1/GluN2C NMDARs (Glu/Gly 100/30 µM), the “Modulation by 10 µM (% of control)” value is reported as 190 ± 10 % of control. Further, the EC50 on GluN1/GluN2C NMDARs (+EU1794-2 1 µM, glutamate/glycine 100/30 µM, read-out: EU1794-27 EC50 (µM) [conf. int.]) came to 7.3 µM. Besides, on GluN1/GluN2C NMDARs (+EU1794-2 3 µM, glutamate/glycine 100/30 µM, read-out: EU1794-27 EC50 (µM) [conf. int.]), the concentration giving a half-maximal response (EC50) was determined as 7.3 µM. Moreover, on GluN1/GluN2C NMDARs (control vs 10 µM EU1794-27), the “Fold Difference (glutamate EC50)” value is reported as 3.3^† and the “Fold Difference (glycine EC50)” value was found to be 2.4. Further, the EC50 on GluN1/GluN2C NMDARs (setting [2]) stood at 2.8 µM. For the same compound, the Emax on GluN1/GluN2C NMDARs (setting [3]) worked out at 230%. Besides, on GluN1/GluN2C NMDARs (setting [5]), the concentration giving a half-maximal response (EC50) is 5 µM. Further, the Emax at GluN1/GluN2C NMDARs (setting [6]) came out at 680%. For the same compound, at GluN1/GluN2A NMDARs, the “modulation of high desensitized steady state responses” value was 247 % of control and 247 ± 31 % of control; the “modulation … (drug/control)” value is 107 % of control and 107 ± 16 % of control; the kon was found to be 59200 M⁻¹ s⁻¹; the off-rate (koff) came to 0.426 s⁻¹. Moreover, the pKd at GluN1/GluN2A NMDARs is 5.14. Besides, at GluN1/GluN2A NMDARs (setting [7]), the “association linear component slope mon” value was −0.33 pA/(s*µM) and the “dissociation linear component slope moff” value is 0.16 pA/(s*µM).
